Patent US10098895B2, “Treatment of symptoms related to neurodegenerative disorders through pharmacological dermal activation of cranial nerves” (GLIA, LLC, priority 2016, dated 2018)
“Also recorded” adds a separate entry of the source.

Columns and labels:
[1] = tested on: herpes ophthalmicus and herpes keratitis; assay: Example 8: herpes ophthalmicus and herpes keratitis patient; type: in vivo, human; conditions: dronabinol 0.5 mg twice daily to both ears
Description: A patient experienced an episode of herpes ophthalmicus and herpes keratitis in September 2003, resulting in thinning melt of the left cornea, loss of vision, inflammation, neuralgia, and a rash of blisters to the left forehead, upper nose, and temple with a subsequent full left-face palsy droop, which required multiple cosmetic surgical procedures to provide some symmetry to the face and partial closure to the eyelids of the left eye.
No corneal graft to the left eye could be attempted due to recurrent thinning of the full cornea and inflammation of the vasculature. The patient was treated with ophthalmic prednisolone, topical and systemic antivirals, topical antibiotics, bandage lens, punctal plugs, and over-the-counter artificial tears and gels. This treatment regimen was continued until January 2011 when the cornea thinned to probable melt-through, necessitating corneal patch surgery. Just prior to the surgery, the patient's vision was measured at 20/2000, or finger vision.
The patient started applying 1% progesterone to their forehead twice daily just before corneal patch surgery planned for January 2011. The dose of progesterone was approximately 1 mg per application.
In September 2014, corneal tissue had sufficiently epithelialized at the perimeter to attempt a corneal graft, which was successfully completed. Progesterone 1% was applied daily to the forehead post-surgery. Within 9 months vision was restored to best correct vision pinhole 20/50.
In February 2015, the patient's visual acuity decreased as a result of the rejection of cells at the lower part of the graft. Moderate central staining continued to persist in a band where eyelids could not close. Intraocular pressure (TOP) in the left eye rose to 22 mmHg. The patient was placed on a treatment regimen that included Prednisolone Forte 6× plus Restasis for rejection 2× daily and oral valacycovir, together with mechanically taping the eyelid closed at night.
In May 2016, the patient initiated a course of twice daily dronabinol treatment, 0.5 mg each dose, to both ears. Through July, stabilization was achieved, and all other medications were discontinued. […] Visual acuity improved to 20/40.

[2] = tested on: herpes facial palsy; assay: Example 9: functional facial motor control in herpes facial palsy; type: in vivo, human
Description: A person had unilateral facial unilateral palsy stemming from 2003 herpes ophthalmicus and herpes keratitis. The left eye lids were unable to close to cover the central cornea without a forceful blink; neither were the lids able to open with the upper lid sagging and without elasticity or muscle control. This static condition was the baseline since the end of 2003 to May 2016, or nearly 13 years.
The left side of the face drooped, the left corner of the mouth drooled, and a noticeable asymmetry presented at rest. The upper lip could only slightly reveal the lowest pat of the upper teeth on the right side. There was minimal functional motor control of facial expression including upper lip. left side brow, eye lids, cheeks to mouth and chin lacked elasticity and functional motor control, leaving face fixed, expressionless, and asymmetrical.
The facial skin sagged as did the eye lids. […] His upper lip was partially frozen on the left side, and drooling was persistent. Lip and mouth expression as in smile was severely restricted.
Beginning in mid-May 2016, the patient began treatment twice daily with dronabinol 2.5 mg in oil, one-third of which was applied equally to the concha of the left ear, to the conchae of the right ear, and to the forehead.

[3] = tested on: Parkinson's disease symptoms; assay: Example 1: Parkinson's disease patient, dermal application to forehead and ear conchae
Protocol: A person was diagnosed with the early stages of Parkinson's disease in December of 2014. Their symptoms included tremors in the hands, impaired short term memory, slow and uncontrolled rigid movements while walking and eating, and declining ocular blink function. The patient also had dry eyes with hyper-tearing, burning, and itching.
The patient was also treated with progesterone 1% on the forehead initially once daily beginning in March 2015. […] The progesterone was applied as needed for about a year.
Instead of the prescribed regimen, the patient began dermal application of dronabinol 1.25 mg 2 times daily to three sites: (i) the forehead, (ii) the concha of the left ear, and (iii) the concha of the right ear. Each dose of 1.25 mg was divided equally between the three application sites. This treatment regimen began Friday Jun. 10, 2016 concurrent with the discontinuation of rasagiline.
In February 2017, the patient, who suffers from debilitating moderate spinal stenosis, started taking Azilect (rasagiline) and carbidopa-levodopa to improve their walking and flexibility. […] The patient decided that, together with the prescribed medications, they would switch from dronabinol to topical testosterone gel applied to the forehead and ear conchae to see if this would impact their longstanding low testosterone levels.
In March 2017, topical testosterone gel application was instituted as an adjunct to is the prescribed Azilect and carbidopa-levodopa.
The patient voluntarily stopped topical testosterone for 3 weeks in June 2017. […] At the end of 3 weeks, topical testosterone was re-instituted as an adjunct to the prescribed medications.

[4] = tested on: essential tremor; assay: Example 7: essential tremor subject with contact lens discomfort; type: in vivo, human
Protocol: A person developed persistent right hand tremors of a kinetic (non-resting) type that has been continuous over the past 6 years. […] This condition had not worsened over time. […] Initially, their doctor thought that these symptoms were stress related and they have been taking 2.5 mg of escitalopram for over 6 years. […] The subject was not on hormone replacement therapy or any other medication.
Concomitantly, the subject suffered from uncomfortable eyes, with a sticky burning sensation and development of blurred vision after about 5-6 hours of contact lens wear. For the past 3 years, the subject was administered 1% progesterone gel (1 mg per day) by dermal application to the forehead once per night. The progesterone gel prolonged comfortable contact lens wear time with sustained visual acuity from 5-6 hours to greater than 15 hours. […] After 2 years of treatment, the benefits of progesterone dermal application persisted for at least 3 days without treatment. There was no effect of the progesterone on their tremor symptoms.
After allowing for washout of progesterone for 3 days, they began forehead application of 0.5-0.75 mg dronabinol once daily at night.
The dronabinol administration regimen was altered by dividing equally the once daily dose of 0.5-0.75 mg dronabinol between the conchae of the left ear, the conchae of the right ear, and the forehead. […] Comfortable contact lens wear, with ease of insertion and removal, and visual acuity extends for 15 hours or more after dronabinol application.
Contact lens comfort wear duration was greater than 15 hours.
In April 2017, the subject, while still being treated with 1% progesterone applied to the forehead, instituted a once-daily low dose topical testosterone applied to the forehead and ear conchae to determine if doing so would produce a beneficial impact on further tremor reduction and in particular essential tremor triggered by caffeine consumption. […] They stopped the treatment to assess whether the tremor would return to pre-testosterone treatment levels. As of August 2017, the subject is without noticeable tremor. The caffeine trigger for tremor onset, which had been recognized throughout all treatments, has not re-appeared since the completion of the 4-week testosterone treatment. The subject continues on low-dose progesterone 1% applied daily to the forehead as the only treatment.

[5] = dronabinol 2.5 mg in oil twice daily divided between both conchae and forehead, 3 months
[6] = dronabinol 1.25 mg 2 times daily, forehead and both conchae, two weeks, no other medications

**Q.** What does the source list for CCCCCc1cc(O)c2c(c1)OC(C)(C)[C@@H]1CCC(C)=C[C@@H]21 [dronabinol, (6aR,10aR)-6a,7,8,10a-tetrahydro-6,6,9-trimethyl-3-pentyl-6H-dibenzo[b,d]-pyran-1-ol]?
**A.** corneal staining ([1]; May through July 2016): improve somewhat, but still moderate; graft rejected cells ([1]; May through July 2016): the number of rejected cells became fewer; visual acuity ([1]; May through July 2016): 20/40; intraocular pressure (printed TOP) ([1]; May through July 2016, from 22 mmHg): 16 mmHg; best corrected vision pinhole ([1]; beginning of August): 20/25; blink interval ([1]; beginning of August): approximately 24 second; corneal staining ([1]; beginning of August): staining improved to superficial; intraocular pressure (printed TOP) in both eyes ([1]; beginning of August): 18; rejection cells ([1]; beginning of August): no sign of rejection cells; Keratograph 5M non-invasive tear film break times (NIKBUTs) level ([1]; beginning of August, 0 = best): 0; facial droop and drool ([2]; 3 months of dronabinol application to the ear conchae): droop ad drool significantly resolved; recurrence of facial palsy ([2]; after dronabinol was discontinued in August 2016): no recurrence of facial palsy; best corrected vision with pinhole [2, 5]: 20/25; conjunctival redness [2, 5]: improved significantly; control over facial expression muscles [2, 5]: regained control over facial expression muscles; early graft rejection [2, 5]: reversed; eye lid motor control [2, 5]: more motor control over both eye lids; persistent central corneal staining [2, 5]: resolved to a significant degree; tear film breakup time level by Keratograph 5M ([2]; dronabinol 2.5 mg in oil twice daily divided between both conchae and forehead, 3 months, 0 = best): 0; stability of improvement ([3]; 3 months of dronabinol to conchae and forehead as sole Parkinson's medication): stable at the improved level; speech, thought and social interaction ([3]; dronabinol 1.25 mg 2 times daily divided between forehead and concha of both ears, within three days, washing out of rasagiline): more fluid speech, less searching for words, fewer thought gaps; bodily rigidity [3, 6]: significantly less bodily rigidity; depression [3, 6]: depression resolved in the absence of antidepressants; facial masking [3, 6]: decreased facial masking and more voluntary facial expressions; also recorded: decrease in facial masking; hand tremors [3, 6]: markedly reduced hand tremors; memory function [3, 6]: much improved memory function; motor skills and coordination [3, 6]: motor skills and coordination improved; postnasal drip, chest cough and asthmatic wheezing [3, 6]: persistent postnasal drip resolved, chest cough and asthmatic wheezing resolved; dry eyes ([3]; dronabinol 1.25 mg 2 times daily, forehead and both conchae, within three days): dry eyes resolved with no need for artificial tears; improvement of Parkinson's disease symptoms (motor, cognitive, emotional), reported by wife ([3]; dronabinol since Jun. 10, 2016 as sole medication, reported Jul. 27, 2016): 90%; cognitive function and other non-motor symptoms during tapering-off ([3]; tapering-off of dronabinol, already on Azilect and carbidopa-levodopa): rapidly deteriorated; adverse events ([3]; throughout low dose neural cranial treatment): no adverse events were noted; comfortable contact lens wear duration ([4]; 0.5-0.75 mg dronabinol once daily divided between both conchae and forehead): ≥ 15 h; hand tremor ([4]; 0.5-0.75 mg dronabinol once daily divided between both conchae and forehead, by the fourth day): hand tremor had noticeably reduced; hand tremor ([4]; 0.5-0.75 mg dronabinol once daily to forehead only, 2 weeks): without impacting their symptoms of hand tremor; reduction of essential tremor from pre-treatment levels, stable new baseline ([4]; after discontinuing dronabinol): about 50%; ocular discomfort ([4]; dronabinol USP 0.5 mg to 0.75 mg in an oil formulation to the forehead, substituted for progesterone): the same benefits to ocular discomfort was obtained; tremor amplitude after ceasing treatment ([4]; dronabinol ceased for 3 days, right hand): about 50 % of pre-treatment level; reduction in essential tremor from pre-treatment baseline ([4]; during dronabinol treatment): 80%; appetite ([4]; low dose topical dronabinol): unwanted increase in appetite
